Molecules are shown by their SMILES.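 Dose response: 5 concentrations. Exposure: 48 h. Format: 96-well plates. Endpoint: linear interpolation; highest concentration if not reached. GI50: concentration for 50% inhibition of growth. TGI: total growth inhibition.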 A value given as a limit tells only on which side of the number the result lay.

What all share (assay): inhibition of tumour cell growth, NCI panel, 48 h
Test [1] concerns HS 578T breast.
Test [2] has as its system T-47D breast.
Test [3] concerns NCI-H23 lung.
The subject of test [4] is SK-MEL-28 melanoma.
In test [5] the test system is 786-0 renal.
Test [6] concerns OVCAR-5 ovarian.
Test [7] relates to UO-31 renal.
Test [8] concerns DU-145 prostate.
Test [9] relates to HCC-2998 colon.
The subject of test [10] is A498 renal.

As for `CC(=O)OCc1ccc2c(c1)C(O)NC(=O)O2` (configuration not stated), the TGI in test [1], in test [2], in [3], in test [4], in test [5] and in test [6] was over 100 µM throughout. Besides, the TGI in test [7] and in [8] was over 100 µM in each case.

Regarding `C#Cc1cccc(Nc2nc3cc([N+](=O)[O-])ccc3nc2Nc2ccc(O)cc2)c1`, the GI50 is 1.89 µM in [1]; 1.93 µM in test [2]; 1.78 µM in test [4]; 1.75 µM in test [9]; 1.59 µM in test [5]; 3.08 µM in test [10]. Moreover, the GI50 is 1.53 µM in test [7] and 1.81 µM in [8]. In addition, the TGI in test [1] was found to be 4.71 µM; in [2], 6.24 µM; in test [4] it was 3.34 µM; in test [9] it was 3.45 µM; in test [5] it was 3.43 µM; in [10], 13.7 µM. For the same compound, the TGI was 3.12 µM in test [7] and 3.77 µM in test [8].

With `CC(=O)OC1(C)N=NC2(CCCCC2)O1` (configuration not stated), the TGI in [1], in [2], in test [3], in [4], in [5] and in test [6] was over 100 µM throughout. The TGI in test [10] and in [8] was over 100 µM throughout.

Take `Cc1ccc(-c2nc(N3CCNCC3)c3oc(-c4ccc(C)cc4)nc3n2)cc1`: the TGI in [1] is over 24.2 µM; in [2], over 61.1 µM; in test [4], 11.5 µM; in [5], 3.24 µM; in [6], 17.9 µM; in test [10] it was 32 µM. In addition, the TGI in test [7] worked out at 3.57 µM; in test [8], 3.76 µM. Besides, the GI50 was 25.7 µM in test [2]; 6.14 µM in test [4]; 3.61 µM in [9]; 1.69 µM in [5]; 5.21 µM in [6]; 15.8 µM in test [10]. For the same compound, the GI50 is 1.76 µM in test [7] and 1.98 µM in test [8].

Consider `C=C1C(=O)O[C@H]2[C@H]1CC/C(CNC(=O)c1cc3ccccc3[nH]1)=C\CC[C@@]1(C)O[C@@H]21`, for which the GI50 in [1] was 6.62 µM; in test [2] it was 1.65 µM; in test [3] it was 1.68 µM; in [9], 1.85 µM; in test [5], 1.69 µM; in test [6], 2.37 µM. The GI50 in test [10] was 3.15 µM; in test [7], 1.29 µM; in test [8], 0.575 µM. The TGI came to 38.7 µM in test [1]; 4.8 µM in [2]; 4.26 µM in [3]; 3.38 µM in test [9]; 3.43 µM in [5]; 6.26 µM in [6]. Moreover, the TGI in test [10] was 6.69 µM; in [7], 2.9 µM; in [8], 1.87 µM.

With `CCOC(=O)n1cc(C2=C(c3ccc(OC)c(OC)c3)COC2=O)c2ccccc21`, the GI50 in test [1] is 0.087 µM; in test [3], 0.157 µM; in [4], 0.271 µM; in [9], 0.0891 µM; in [5], 0.0625 µM; in test [6], 0.199 µM. The results for the GI50 in [10], in [7] and in test [8] were 0.0226 µM, 0.0632 µM and 0.0794 µM, respectively. Also, the TGI is over 100 µM in [1]; over 100 µM in [3]; over 100 µM in test [4]; 16.5 µM in test [9]; over 100 µM in test [5]; over 100 µM in [6]. Also, the results for the TGI in test [10], in [7] and in [8] were 0.139 µM, over 100 µM and over 100 µM, respectively.

For the compound `NC(N)=NS(=O)(=O)c1ccc(N=Nc2c(O)c(C(=O)O)cc3ccccc23)cc1`, the TGI in test [1], in [2], in test [3], in [4], in [9] and in test [5] was over 100 µM throughout. The TGI in test [6], in test [7] and in test [8] was over 100 µM each time.

As for `COc1ccc(C(c2cc(OC)c(OC)c(OC)c2)n2cncn2)cc1O` (configuration not stated), the GI50 was 0.548 µM in test [1]; 0.977 µM in test [3]; 1.35 µM in test [9]; 0.474 µM in test [5]; 1.99 µM in test [6]; 0.324 µM in test [10]. Besides, the GI50 in [7] is 0.903 µM; in [8] it was 0.531 µM. For the same compound, the TGI is over 100 µM in [1]; over 100 µM in test [3]; over 100 µM in test [9]; over 100 µM in [5]; over 100 µM in test [6]; 0.957 µM in test [10]. Besides, the TGI in [7] and in [8] was over 100 µM each time.

As to `C=C(C)C(=O)O[C@@H]1C[C@@]2(C)O[C@@H]2C[C@H](O)/C(C)=C/[C@H]2OC(=O)C(=C)[C@@H]21`, the TGI was over 100 µM in [1]; over 100 µM in test [2]; over 100 µM in test [3]; 56.5 µM in test [4]; over 100 µM in test [9]; over 100 µM in [5]. Also, the TGI in test [6], in test [10] and in test [8] was over 100 µM each time.

For the compound `CN(C)c1ccc(/C=N/NC(=S)Nc2ccccc2)cc1`, the TGI in test [1], in test [2], in test [3], in test [4], in test [5] and in [6] was over 100 µM in each case. In addition, the TGI in test [10], in test [7] and in test [8] was over 100 µM each time.
